Reference: US9193736B2, “PDE 10a inhibitors for the treatment of type II diabetes” (Janssen Pharmaceutica, NV, priority 2013, dated 2015)
Counter-ions that a name gives are not always drawn.

Tests used:
[1] = PDE10a perfused brain permeability study: plasma concentrations at 30 and 120 min, brain concentration at 120 min, brain/plasma ratio; conditions: male, Sprague-Dawley, rat; for Kp at 2 h: brain/plasma
Method: PDE10a-Brain Permeability Assay
A. PDE10a-Perfused Brain Permeability Study Protocol
Drug administration by oral gavage, subcutaneous injection or intravenous was carried out using male Sprague Dawley rats under IACUC protocol (SH-MET3010). Male Sprague Dawley rats (Charles River) ˜300-350 g were maintained on a 4% standard rodent diet (Test Diet 5001). They are allowed ad libitum access to water and food. Room temperature was maintained at 64° F. and humidity at 30-70%.
Three animals per compound were provided a dose of 2 mg/mL in 20% HpbCD/Tris pH 8 by tail i.v. or 30 mpk p.o. or s.c. in 20% HpbCD/Tris pH 8, with PDE10a antagonists. A first blood sample was collected at 30 min via retro-orbital sinus (anesthetic by 70% CO2/30% O2) into heparinzed plasma separator tubes. The blood was centrifuged and 100 μL plasma was placed into a 96 well plate and saved on dry ice.
After the 120 min, the final blood sample was collected via retro-orbital sinus under anesthesia by IP 0.5 cc injection of a 4/1 mixture of Ketaset: AnaSed [(prepared 10 mL Ketaset (100 mg/mL Ketamine)+2.5 mL AnaSed (20 mg/mL Xylazine)]. The rats were then perfused with 400 mL heparinized saline (10,000 units/L) through the left ventricle of the heart; the brains were then removed (not including the medulla), weighed and homogenized in PBS (4 mL/g tissue). The samples were stored at −80° C. and submitted for chemical analysis of blood and brain concentrations. Endpoints of sample analysis consists of the plasma concentrations at 30 and 120 min, plus brain concentrations at 120 min.

[2] = target: Rat recombinant PDE10a (rPDE10a) (Rattus norvegicus (Rat), UniProt Q9QYJ6); test: In vitro assay PDE10a: rat recombinant PDE10a SPA with 3H-cAMP substrate, IC50; type: biochemical; conditions: 60 nM cAMP, read-out: rPDE10a2 IC50
Chain of Rat recombinant PDE10a (rPDE10a) (Q9QYJ6 whole entry): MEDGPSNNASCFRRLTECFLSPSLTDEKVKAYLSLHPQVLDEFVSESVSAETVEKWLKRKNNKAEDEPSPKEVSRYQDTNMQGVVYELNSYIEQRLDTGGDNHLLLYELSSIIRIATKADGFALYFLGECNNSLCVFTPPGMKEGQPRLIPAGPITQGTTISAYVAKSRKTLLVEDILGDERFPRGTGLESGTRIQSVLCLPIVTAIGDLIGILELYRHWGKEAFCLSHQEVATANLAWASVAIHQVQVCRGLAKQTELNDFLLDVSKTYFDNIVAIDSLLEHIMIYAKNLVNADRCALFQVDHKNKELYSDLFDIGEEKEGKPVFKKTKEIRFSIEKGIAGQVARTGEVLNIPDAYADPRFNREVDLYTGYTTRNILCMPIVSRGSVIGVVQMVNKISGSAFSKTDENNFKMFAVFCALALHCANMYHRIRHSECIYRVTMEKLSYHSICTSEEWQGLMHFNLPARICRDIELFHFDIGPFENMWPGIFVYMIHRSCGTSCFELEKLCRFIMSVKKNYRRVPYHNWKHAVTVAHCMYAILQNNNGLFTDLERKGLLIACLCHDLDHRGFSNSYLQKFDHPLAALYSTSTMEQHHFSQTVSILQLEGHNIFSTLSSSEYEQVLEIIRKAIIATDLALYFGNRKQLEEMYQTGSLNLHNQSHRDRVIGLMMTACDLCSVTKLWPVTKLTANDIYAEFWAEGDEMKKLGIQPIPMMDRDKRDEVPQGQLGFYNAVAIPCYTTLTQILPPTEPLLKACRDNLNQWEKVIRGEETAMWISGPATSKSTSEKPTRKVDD
Procedure, shortened: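 Enzyme expressed in Sf9 cells via baculovirus and Ni-sepharose purified; reaction with 3H-cAMP ran 60 min at rt, stopped with PDE SPA beads. Compounds diluted in DMSO at 100-fold final concentration; blanks omitted enzyme.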

[3] = target: Human recombinant PDE10A2 (Homo sapiens (Human), UniProt Q9Y233); test: In vitro hPDE10a: human recombinant PDE10A2 scintillation proximity assay, IC50; type: biochemical; conditions: human recombinant PDE10A2, SPA, 60 nM cAMP; read-out: hPDE10a2 IC50
Chain of Human recombinant PDE10A2 (Q9Y233 267-1055): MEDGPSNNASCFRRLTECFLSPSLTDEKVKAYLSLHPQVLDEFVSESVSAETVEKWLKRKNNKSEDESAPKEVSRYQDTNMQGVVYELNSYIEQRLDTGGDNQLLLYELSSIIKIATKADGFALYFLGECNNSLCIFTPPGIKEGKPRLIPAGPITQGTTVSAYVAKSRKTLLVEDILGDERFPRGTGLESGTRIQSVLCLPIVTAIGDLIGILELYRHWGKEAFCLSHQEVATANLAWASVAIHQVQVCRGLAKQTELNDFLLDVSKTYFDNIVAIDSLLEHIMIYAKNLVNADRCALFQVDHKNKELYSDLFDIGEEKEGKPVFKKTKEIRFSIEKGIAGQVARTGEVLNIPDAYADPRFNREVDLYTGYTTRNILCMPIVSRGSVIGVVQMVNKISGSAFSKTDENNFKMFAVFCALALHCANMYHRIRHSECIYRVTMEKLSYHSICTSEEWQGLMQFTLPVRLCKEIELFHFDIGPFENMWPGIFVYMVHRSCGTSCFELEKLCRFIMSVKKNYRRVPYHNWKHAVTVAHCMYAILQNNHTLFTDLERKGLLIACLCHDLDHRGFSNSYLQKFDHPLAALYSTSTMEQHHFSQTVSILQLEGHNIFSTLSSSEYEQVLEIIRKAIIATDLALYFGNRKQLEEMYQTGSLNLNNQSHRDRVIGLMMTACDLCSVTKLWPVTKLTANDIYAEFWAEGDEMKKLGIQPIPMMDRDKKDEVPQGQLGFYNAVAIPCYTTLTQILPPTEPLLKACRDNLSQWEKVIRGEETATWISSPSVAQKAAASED
Procedure, shortened: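 Purified recombinant human PDE10A2 (Ni-sepharose) was assayed by SPA, counting [3H]-AMP product captured on yttrium silicate beads added in zinc sulphate stop solution. Inhibition was expressed as % of activity without compound, with a no-enzyme low control. Repeat data points were aggregated.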

Row | SMILES | concentration at 2 h ([1]; brain) [ng/g] | Kp at 2 h [1] | concentration at 2 h ([1]; plasma) [ng/mL] | IC50 [2] [nM] | IC50 [3] [nM]
1 | c1ccc2nc(SCc3nc4c(N5CCOCC5)ccnn4c3-c3ccc(N4CCNCC4)nc3)ccc2c1 [Cpd 6, 4-(3-(6-(piperazin-1-yl)pyridin-3-yl)-2-((quinolin-2-ylthio)methyl)imidazo[1,2-b]pyridazin-8-yl)morpholine trifluoroacetic acid salt] | 52 | 0.39 | 135 | 25 | 20
2 | O=C(Nc1nc2c(N3CCOCC3)ccnn2c1-c1ccc(N2CCNCC2)nc1)c1ccc2ccccc2n1 [Cpd 8, N-(8-Morpholino-3-(6-(piperazin-1-yl)pyridin-3-yl)imidazo[1,2-b]pyridazin-2-yl)quinoline-2-carboxamide trifluoroacetic acid salt] | 38.8 | 1.16 | 33.7 | 813 | 603
3 | NS(=O)(=O)N1CCN(c2ccc(-c3c(CSc4ccc5ccccc5n4)nc4c(N5CCOCC5)ccnn34)cn2)CC1 [Cpd 20, 4-(5-(8-Morpholino-2-((quinolin-2-ylthio)methyl)imidazo[1,2-b]pyridazin-3-yl)pyridin-2-yl)piperazine-1-sulfonamide] | 152 | 0.31 | 492 | 2 | 18
4 | O=C(O)CNc1ccc(-c2c(C#Cc3ccc4ccccc4n3)nc3c(N4CCOCC4)ccnn23)cn1 [Cpd 24, 2-(5-(8-Morpholino-2-(2-(quinolin-2-yl)ethynyl)imidazo[1,2-b]pyridazin-3-yl)pyridin-2-ylamino)acetic acid trifluoroacetic acid salt] | 1.35 | 0.2 | 5.37 | 1 | 1
5 | Oc1nc(-c2ccc(-c3c(C#Cc4ccc5ccccc5n4)nc4c(N5CCOCC5)ccnn34)cn2)no1 [Cpd 26, 3-(5-(8-Morpholino-2-(quinolin-2-ylethynyl)imidazo[1,2-b]pyridazin-3-yl)pyridin-2-yl)-1,2,4-oxadiazol-5-ol] | 37.8 | 0.26 | 150 | – | –
6 | Oc1ncn(-c2ccc(-c3c(/C=C/c4ccc5ccccc5n4)nc4c(N5CCOCC5)ccnn34)cc2)n1 [Cpd 54, (E)-1-(4-(8-Morpholino-2-(2-(quinolin-2-yl)vinyl)imidazo[1,2-b]pyridazin-3-yl)phenyl)-1H-1,2,4-triazol-3-ol trifluoroacetic acid salt] | 0 | 0 | 23 | 11 | 7
7 | Oc1nc(O)c(-c2ccc(-c3c(/C=C/c4ccc5ccccc5n4)nc4c(N5CCOCC5)ccnn34)cc2)o1 [Cpd 65, 5-(4-{8-Morpholin-4-yl-2-[(E)-2-quinolin-2-ylethenyl]imidazo[1,2-b]pyridazin-3-yl}phenyl)-1,3-oxazole-2,4-diol] | 14.5 | 0.01 | 1610 | 8 | 10
8 | Cn1nc(-c2ccc(-c3c(/C=C/c4ccc5ccccc5n4)nc4c(N5CCOCC5)ccnn34)cc2)nc1O [Cpd 74, (E)-2-Methyl-5-(4-(8-morpholino-2-(2-(quinolin-2-yl)vinyl)imidazo[1,2-b]pyridazin-3-yl)phenyl)-2H-1,2,4-triazol-3-ol] | 34.7 | 0.04 | 857 | 13 | 13
9 | O=C(O)c1ccc(-c2c(/C=C/c3ccc4c(n3)CCCC4)nc3c(N4CCOCC4)ccnn23)cc1 [Cpd 76, (E)-4-(8-Morpholino-2-(2-(5,6,7,8-tetrahydroquinolin-2-yl)vinyl)imidazo[1,2-b]pyridazin-3-yl)benzoic acid] | 9.3 | 0.02 | 568 | 7 | 5
10 | O=C(O)c1cccc(-c2c(/C=C/c3ccc4ccccc4n3)nc3c(N4CCOCC4)ccnn23)c1 [Cpd 124, (E)-3-(8-Morpholino-2-(2-(quinolin-2-yl)vinyl)imidazo[1,2-b]pyridazin-3-yl)benzoic acid] | 0 | 0 | 86.6 | 9 | 4
11 | O=C(O)CCc1ccc(-c2c(/C=C/c3ccc4ccccc4n3)nc3c(N4CCOCC4)ccnn23)cc1 [Cpd 128, 3-(4-{8-Morpholin-4-yl-2-[(E)-2-quinolin-2-ylethenyl]imidazo[1,2-b]pyridazin-3-yl}phenyl)propanoic acid] | 0 | 0 | 314 | 5 | 5
12 | CS(=O)(=O)NC(=O)c1ccc(-c2c(/C=C/c3ccc4ccccc4n3)nc3c(N4CCOCC4)ccnn23)cc1 [compound 39, (E)-N-(Methylsulfonyl)-4-(8-morpholino-2-(2-(quinolin-2-yl)vinyl)imidazo[1,2-b]pyridazin-3-yl)benzamide] | 0 | 0 | 147 | 3 | 5

Continued, values first:

Row | concentration at 2 h ([1]; brain) [ng/g] | Kp at 2 h [1] | concentration at 2 h ([1]; plasma) [ng/mL] | IC50 [2] [nM] | IC50 [3] [nM] | SMILES
13 | 0 | 0 | 15.7 | 2 | 3 | O=C(O)CNc1ccc(-c2c(/C=C/c3ccc4ccccc4n3)nc3c(N4CCOCC4)ccnn23)cn1 [Cpd 17, (E)-2-(5-(8-Morpholino-2-(2-(quinolin-2-yl)vinyl)imidazo[1,2-b]pyridazin-3-yl)pyridin-2-ylamino)acetic acid]
14 | 1.69 | 0.005 | 438 | 2 | 2 | CS(=O)(=O)NC(=O)c1ccc(-c2c(/C=C/c3ccc4ccccc4n3)nc3c(N4CCOCC4)ccnn23)cn1 [Cpd 27, (E)-N-(Methylsulfonyl)-5-(8-morpholino-2-(2-(quinolin-2-yl)vinyl)imidazo[1,2-b]pyridazin-3-yl)picolinamide trifluoroacetic acid salt]
15 | 0.95 | 0.01 | 136 | 1 | 1 | CS(=O)(=O)NC(=O)c1ccc(-c2c(C#Cc3ccc4ccccc4n3)nc3c(N4CCOCC4)ccnn23)cn1 [Cpd 28, N-(Methylsulfonyl)-5-(8-morpholino-2-(quinolin-2-ylethynyl)imidazo[1,2-b]pyridazin-3-yl)picolinamide]
16 | 40.2 | 2.5 | 107 | 2 | 1 | CS(=O)(=O)NC(=O)c1ccc(-c2c(CCc3ccc4ccccc4n3)nc3c(N4CCOCC4)ccnn23)cn1 [Cpd 30, N-(Methylsulfonyl)-5-(8-morpholino-2-(2-(quinolin-2-yl)ethyl)imidazo[1,2-b]pyridazin-3-yl)picolinamide trifluoroacetic acid salt]
17 | 60.7 | 0.02 | 2840 | 6 | 3 | O=C(O)C1CCN(c2ccc(-c3c(/C=C/c4ccc5ccccc5n4)nc4c(N5CCOCC5)ccnn34)cc2)CC1 [Cpd 100, (E)-1-(4-(8-Morpholino-2-(2-(quinolin-2-yl)vinyl)imidazo[1,2-b]pyridazin-3-yl)phenyl)piperidine-4-carboxylic acid trifluoroacetic acid salt]
18 | 0 | 0 | 155 | 5 | 4 | O=c1[nH]c(-c2ccc(-c3c(/C=C/c4ccc5ccccc5n4)nc4c(N5CCOCC5)ccnn34)cc2)no1 [Cpd 102, (E)-3-(4-(8-Morpholino-2-(2-(quinolin-2-yl)vinyl)imidazo[1,2-b]pyridazin-3-yl)phenyl)-1,2,4-oxadiazol-5(4H)-one]
19 | 0 | 0 | 284 | 2 | 2 | O=C(O)CCc1ccc(-c2c(/C=C/c3ccc4ccccc4n3)nc3c(N4CCOCC4)ccnn23)cn1 [Cpd 125, (E)-3-(5-(8-Morpholino-2-(2-(quinolin-2-yl)vinyl)imidazo[1,2-b]pyridazin-3-yl)pyridin-2-yl)propanoic acid]
20 | 0 | 0 | 499 | 2 | 2 | O=C(O)c1ccc(-c2c(/C=C/c3ccc4ccccc4n3)nc3c(N4CCOCC4)ccnn23)cc1 [compound 40, (E)-4-(8-Morpholino-2-(2-(quinolin-2-yl)vinyl)imidazo[1,2-b]pyridazin-3-yl)benzoic acid trifluoroacetic acid salt]
21 | 0 | 0 | 162 | – | < 1 | O=C(O)c1ccc(-c2c([C@H]3C[C@H](c4ccc5ccccc5n4)C3)nc3c(N4CCOCC4)ccnn23)cc1 [compound 164, 4-(8-Morpholino-2-((1r,3r)-3-(quinolin-2-yl)cyclobutyl)imidazo[1,2-b]pyridazin-3-yl)benzoic acid trifluoroacetic acid salt]
22 | 30.1 | 0.02 | 1200 | – | 2 | O=C(O)C1CCN(c2ccc(-c3c([C@H]4C[C@H](c5ccc6ccccc6n5)C4)nc4c(N5CCOCC5)ccnn34)cc2)CC1 [compound 168, 1-(4-(8-Morpholino-2-((1r,3r)-3-(quinolin-2-yl)cyclobutyl)imidazo[1,2-b]pyridazin-3-yl)phenyl)piperidine-4-carboxylic acid]
